Measurements published in BindingDB's records for doi:10.1016/j.bmcl.2008.10.099 (Bristol-Myers Squibb, 2008).

Biological target: Potassium voltage-gated channel subfamily A member 5 (Homo sapiens, UniProt P22460)
Assay: Inhibition of human Kv1.5 channel expressed in mouse L929 cells by EP voltage clamp technique

Chain of Potassium voltage-gated channel subfamily A member 5 (P22460 whole entry): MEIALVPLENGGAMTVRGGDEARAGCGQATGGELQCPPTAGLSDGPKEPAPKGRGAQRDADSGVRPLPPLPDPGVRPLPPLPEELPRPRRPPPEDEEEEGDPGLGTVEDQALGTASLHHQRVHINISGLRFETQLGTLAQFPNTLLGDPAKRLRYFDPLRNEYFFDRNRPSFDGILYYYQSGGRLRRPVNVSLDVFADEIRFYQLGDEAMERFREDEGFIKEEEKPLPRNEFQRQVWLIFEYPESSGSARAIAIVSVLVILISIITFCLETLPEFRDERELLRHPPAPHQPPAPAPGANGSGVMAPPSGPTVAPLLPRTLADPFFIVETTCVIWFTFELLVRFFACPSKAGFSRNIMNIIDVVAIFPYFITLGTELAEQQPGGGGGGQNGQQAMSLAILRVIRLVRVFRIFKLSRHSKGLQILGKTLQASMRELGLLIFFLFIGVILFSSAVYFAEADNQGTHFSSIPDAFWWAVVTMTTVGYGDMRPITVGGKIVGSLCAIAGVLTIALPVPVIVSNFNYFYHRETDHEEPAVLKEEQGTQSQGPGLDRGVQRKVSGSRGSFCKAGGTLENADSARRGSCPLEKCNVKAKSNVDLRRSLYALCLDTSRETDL

SMILES	IC50
CC1=Nc2ccnn2C(c2cc3ccccc3o2)C1C(=O)N1CCN(c2ccc(F)cc2)CC1 (stereo unspecified) [(7-(benzofuran-2-yl)-5-methyl-4,7-dihydropyrazolo[1,5-a]pyrimidin-6-yl)(4-(4-fluorophenyl)piperazin-1-yl)methanone]	160 nM
CC1=Nc2ccnn2C(c2cccc(Cl)c2)C1C(=O)N1CCN(c2ccc(F)cc2)CC1 (stereo unspecified) [(7-(3-chlorophenyl)-5-methyl-4,7-dihydropyrazolo[1,5-a]pyrimidin-6-yl)(4-(4-fluorophenyl)piperazin-1-yl)methanone]	190 nM
CC1=Nc2ccnn2C(c2ccc(Cl)c(Cl)c2)C1C(=O)N1CCCCCC1 (stereo unspecified) [azepan-1-yl(7-(3,4-dichlorophenyl)-5-methyl-4,7-dihydropyrazolo[1,5-a]pyrimidin-6-yl)methanone]	190 nM
CCCCNC(=O)C1C(C)=Nc2ccnn2C1c1ccc(Cl)c(Cl)c1 (stereo unspecified) [N-butyl-7-(3,4-dichlorophenyl)-5-methyl-4,7-dihydropyrazolo[1,5-a]pyrimidine-6-carboxamide]	440 nM
CC1=Nc2ccnn2C(c2ccc(Cl)c(Cl)c2)C1C(=O)NCc1ccccc1 (stereo unspecified) [N-benzyl-7-(3,4-dichlorophenyl)-5-methyl-4,7-dihydropyrazolo[1,5-a]pyrimidine-6-carboxamide]	160 nM
CCN(CC)C(=O)C1C(C)=Nc2ccnn2C1c1ccc(Cl)c(Cl)c1 (stereo unspecified) [7-(3,4-dichlorophenyl)-N,N-diethyl-5-methyl-4,7-dihydropyrazolo[1,5-a]pyrimidine-6-carboxamide]	440 nM
CC1=Nc2ccnn2[C@H](c2cccc(Cl)c2Cl)C1C(=O)N1CCN(c2ccc(F)cc2)CC1 (stereo partly drawn) [(S)-(7-(2,3-dichlorophenyl)-5-methyl-4,7-dihydropyrazolo[1,5-a]pyrimidin-6-yl)(4-(4-fluorophenyl)piperazin-1-yl)methanone]	160 nM

The remaining compounds from weak to strong by IC50, led by results:

IC50	SMILES
440 nM	CC1=Nc2ccnn2C(c2ccc(Cl)cc2)C1C(=O)N1CCN(c2ccc(F)cc2)CC1 (stereo unspecified) [(7-(4-chlorophenyl)-5-methyl-4,7-dihydropyrazolo[1,5-a]pyrimidin-6-yl)(4-(4-fluorophenyl)piperazin-1-yl)methanone]
200 nM	CC1=Nc2ccnn2C(c2sc3ccccc3c2C)C1C(=O)N1CCN(c2ccc(F)cc2)CC1 (stereo unspecified) [(4-(4-fluorophenyl)piperazin-1-yl)(5-methyl-7-(3-methylbenzo[b]thiophen-2-yl)-4,7-dihydropyrazolo[1,5-a]pyrimidin-6-yl)methanone]
200 nM	COC[C@@H]1CCCN1C(=O)C1C(C)=Nc2ccnn2C1c1ccc(Cl)c(Cl)c1 (stereo partly drawn) [(7-(3,4-dichlorophenyl)-5-methyl-4,7-dihydropyrazolo[1,5-a]pyrimidin-6-yl)((S)-2-(methoxymethyl)pyrrolidin-1-yl)methanone]
160 nM	CC1=Nc2ccnn2C(c2cccc(Cl)c2Cl)C1C(=O)N1CCN(c2ccc(F)cc2)CC1 (stereo unspecified) [(7-(2,3-dichlorophenyl)-5-methyl-4,7-dihydropyrazolo[1,5-a]pyrimidin-6-yl)(4-(4-fluorophenyl)piperazin-1-yl)methanone]
